According to ChEMBL document CHEMBL3091438, “Discovery and characterisation of hydrazines as inhibitors of the immune suppressive enzyme, indoleamine 2,3-dioxygenase 1 (IDO1)” (Bioorg Med Chem, 2013):
pIC50: −log10 of the molar value.

Columns and labels:
[1] = biological target: T1, Indoleamine 2,3-dioxygenase 1 (Homo sapiens, UniProt P14902); experiment: Inhibition of recombinant human IDO1 expressed in Escherichia coli EC538 using L-tryptophan as substrate at 0.1 mM after 1 hr relative to control
Target sequence in this assay (P14902 whole entry, looked up): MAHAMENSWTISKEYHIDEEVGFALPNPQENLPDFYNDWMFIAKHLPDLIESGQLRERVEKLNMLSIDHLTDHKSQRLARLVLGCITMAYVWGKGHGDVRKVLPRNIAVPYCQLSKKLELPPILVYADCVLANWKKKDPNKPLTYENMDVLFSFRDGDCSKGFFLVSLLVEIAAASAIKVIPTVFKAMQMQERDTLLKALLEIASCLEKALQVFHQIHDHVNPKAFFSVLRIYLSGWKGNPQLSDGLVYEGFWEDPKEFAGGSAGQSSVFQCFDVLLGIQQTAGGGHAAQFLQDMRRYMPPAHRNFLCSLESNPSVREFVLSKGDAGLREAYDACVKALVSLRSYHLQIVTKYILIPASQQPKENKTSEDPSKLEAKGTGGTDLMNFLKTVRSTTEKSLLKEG

[2] = biological target: T1, Indoleamine 2,3-dioxygenase 1; experiment: Inhibition of human IDO1 expressed in mouse LLTC cells using L-tryptophan as substrate after 24 hrs; type: cell-based
Target sequence in this assay (P14902 whole entry): as the sequence (P14902 whole entry, looked up) above

[3] = biological target: Indoleamine 2,3-dioxygenase 1 (Mus musculus, UniProt P28776); experiment: Inhibition of mouse IDO1 expressed in mouse LLTC cells using L-tryptophan as substrate after 24 hrs; type: cell-based
[4] = biological target: T1, Indoleamine 2,3-dioxygenase 1; experiment: Inhibition of recombinant human IDO1 expressed in Escherichia coli EC538 using L-tryptophan as substrate after 1 hr
Target sequence in this assay (P14902 whole entry): as the sequence (P14902 whole entry, looked up) above

[5] = Cytotoxicity against mouse LLTC cells at IC50 by MTT assay; type: cell-based
[6] = biological target: T1, Indoleamine 2,3-dioxygenase 1; experiment: Ratio of 2-hydrazinobenzothiazole IC50 to compound IC50 for recombinant human IDO1
Target sequence in this assay (P14902 whole entry, looked up): as above

Sequence of Indoleamine 2,3-dioxygenase 1 (Mus musculus, UniProt P28776) (P28776 whole entry): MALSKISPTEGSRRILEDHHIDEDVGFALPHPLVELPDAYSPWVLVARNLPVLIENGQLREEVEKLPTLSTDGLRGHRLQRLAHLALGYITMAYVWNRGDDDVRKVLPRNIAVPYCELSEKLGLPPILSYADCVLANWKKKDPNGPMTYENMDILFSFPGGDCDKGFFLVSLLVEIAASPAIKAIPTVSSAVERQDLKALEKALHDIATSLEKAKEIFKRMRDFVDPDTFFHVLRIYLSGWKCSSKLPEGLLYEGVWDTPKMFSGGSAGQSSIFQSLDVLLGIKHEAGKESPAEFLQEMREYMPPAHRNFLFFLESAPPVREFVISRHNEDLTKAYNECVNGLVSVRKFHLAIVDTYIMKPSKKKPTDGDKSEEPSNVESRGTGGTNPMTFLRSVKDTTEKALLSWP

| inhibition [1] [%] | pIC50 [4] | SMILES | further results |
| --- | --- | --- | --- |
| 37 |  | Cc1ccc2nc(NN)sc2c1 |  |
| 30 |  | CC(C)=NNc1nc2ccccc2s1 |  |
| 91 | 5.10 | NNc1nc2ccccc2s1 | pIC50 [2]: 4.21; pIC50 [3]: 4.30; Activity [5]: Non-toxic |
| 13 |  | O=C(O)/C=N/Nc1nc2ccccc2s1 |  |
|  | < 3.30 | c1ccc2sc(SSc3nc4ccccc4s3)nc2c1 [BENZOTHIAZYL DISULFIDE] |  |
| 2 |  | N#CCCN(N)c1nc2ccccc2s1 |  |
|  | 3.19 | c1ccc2scnc2c1 [BENZO[D]THIAZOLE] |  |
| -1 |  | NNC(=O)c1ccc2nc(NN)sc2c1 |  |
| 46 |  | NNc1nc2cc(C(F)(F)F)ccc2s1 |  |
| 86 | 5.82 | NNc1nc2cc(Cl)ccc2s1 |  |
|  | < 3.30 | Nc1nc2ccc([N+](=O)[O-])cc2s1 |  |
|  | 3.90 | Sc1nc2ccccc2s1 [2-MERCAPTOBENZOTHIAZOLE] |  |

| SMILES | inhibition [1] [%] | pIC50 [4] | further results |
| --- | --- | --- | --- |
| NNc1ccccc1 [PHENYLHYDRAZINE] |  | 6.60 | pIC50 [2]: 5.89; pIC50 [3]: 6.70; Ratio IC50 [6]: 32; Activity [5]: Non-toxic |
